According to patent US7713969B2, “Compositions and methods for treatment of cancer” (ArQule, Inc., priority 2005, dated 2010):

Tests used:
[1] = system: human tumor cell lines; experiment: Colony formation assay, summary across cell lines; format: cell-based; conditions: c-Met expressing solid tumor types, 24 hours exposure, read-out: IC50 for c-Met expressing solid tumor types (CFA)
Description: To determine c-met inhibition, exponentially growing MCF-7 and MDA-MB-231 human breast cancer cells, DLD1 and HT29 human colon cancer cells, PACA2 and PANC-1 human pancreatic cancer cells and NCI-H441 human non-small cell lung cancer cells (H441) were serum starved in 0.5% FBS and treated with increasing amounts of (−)-trans-3-(5,6-dihydro-4H-pyrrolo [3,2,1-ij]quinolin-1-yl)-4(1H-indol-3-yl)pyrrolidine-2,5-dione for 24 hours as indicated. Cells were then left unstimulated or stimulated with 100 ng/mL HGF for 10 minutes and whole cell extracts were prepared. […] Percent inhibition was determined by densitometry using the Scion Image For colony formation assays (CFA), exponentially growing cells were seeded at 2,000 cells per well in 6-well plates and allowed to attach for 24 hours. […] Colonies of greater than 50 cells were scored as survivors and percentage of cell survival was plotted to determine the IC50. […] The IC50 of (−)-trans-3-(5,6-dihydro-4H-pyrrolo[3,2,1-ij]quinolin-1-yl)-4(1H-indol-3-yl) pyrrolidine-2,5-dione for c-Met expressing solid tumor types is in the 0.1-0.7 μM range following exposure to (−)-trans-3-(5,6-dihydro-4H-pyrrolo[3,2,1-ij]quinolin-1-yl)-4(1H-indol-3-yl)pyrrolidine-2,5-dione for 24 hours, as determined by colony formation assay (CFA).

[2] = system: MDA-MB-231 cells; experiment: Colony counting, surviving fraction (Example 78); format: cell-based, human; conditions: Homo sapiens, MDA-MB-231; two days incubation, colonies counted two weeks later; read-out: IC50 (surviving fraction equaled 50)
Description: MDA-MB-231 cells (ATCC# HTB-26), grown in DMEM plus 15% heat inactivated fetal bovine serum plus 10 mM HEPES pH 7.5, were plated in 60 mm plates (2×10^5 cells per plate). After two days candidate compounds in DMSO at various concentrations were diluted in media and added to individual plates such that the final DMSO concentration in the cell culture media was 0.1%. After two days incubation the culture was trypsinized, cells were washed with media, counted using a hemocytometer and 500 cells, including cell bodies, were plated in […] in media. Two weeks later the media was removed and the cell colonies were fixed with methanol for 10 minutes, stained with 1% crystal violet 10 minutes, washed with water and air dried. Cell colonies were visually counted when there were greater then 50 cells present per colony. Plating efficiency was defined as the average number of colonies formed divided by 500. The surviving fraction was defined as the plating efficiency of a candidate compound divided by the plating efficiency of DMSO multiplied by 100. For candidate compound titrations, the IC50 concentration was determined by fitting the equation y=AeBx to the data points and extrapolating the concentration where surviving fraction equaled 50. […]

[3] = system: NCI-H69; experiment: Cell viability MTS assay; format: cell-based, human; conditions: Homo sapiens, NCI-H69, 72 hours with compound
Method in brief: (§1)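 IC50 values reflect 50% loss of viable cells, measured as MTS absorbance at 490 nm. Compound was present for 72 hours, with a 4-hour MTS/PMS step ended by SDS.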

[4] = system: NCI-H82; experiment: Cell viability MTS assay; format: cell-based, human; conditions: Homo sapiens, NCI-H82, 72 hours with compound
Method in brief: as §1

[5] = system: HT-29; experiment: Colony formation assay (CFA); format: cell-based; conditions: Homo sapiens; HT-29, 24 hours exposure, colonies after 14-21 days; read-out: (−)-trans IC50 CFA
Description: To determine c-met inhibition, exponentially growing MCF-7 and MDA-MB-231 human breast cancer cells, DLD1 and HT29 human colon cancer cells, PACA2 and PANC-1 human pancreatic cancer cells and NCI-H441 human non-small cell lung cancer cells (H441) were serum starved in 0.5% FBS and treated with increasing amounts of (−)-trans-3-(5,6-dihydro-4H-pyrrolo [3,2,1-ij]quinolin-1-yl)-4(1H-indol-3-yl)pyrrolidine-2,5-dione for 24 hours as indicated. Cells were then left unstimulated or stimulated with 100 ng/mL HGF for 10 minutes and whole cell extracts were prepared. Whole cell lysates (50 μg) were resolved by SDS-PAGE, transferred onto a PVDF membrane, and an enhanced chemiluminescence assay system (ECL) was used to determine the phosphorylation status of c-Met. A polyclonal antibody against phospho (Y1349) c-Met (phospho-c-Met) was obtained from Biosource International and a monoclonal antibody against β-actin was purchased from Invitrogen. Percent inhibition was determined by densitometry using the Scion Image For colony formation assays (CFA), exponentially growing cells were seeded at 2,000 cells per well in 6-well plates and allowed to attach for 24 hours. Increasing concentrations of (−)-trans-3-(5,6-dihydro-4H-pyrrolo[3,2,1-ij]quinolin-1-yl)-4(1H-indol-3-yl)pyrrolidine-2,5-dione (from 0.01 to 30 μM) were then added to the media for another 24 hours. After 24 hours exposure, the drug was removed and fresh media was added for the next 14-21 days, allowing for colony formation. Cells were fixed and stained with GEMSA (Gibco BRL). Colonies of greater than 50 cells were scored as survivors and percentage of cell survival was plotted to determine the IC50. […] The IC50 of (−)-trans-3-(5,6-dihydro-4H-pyrrolo[3,2,1-ij]quinolin-1-yl)-4(1H-indol-3-yl) pyrrolidine-2,5-dione for c-Met expressing solid tumor types is in the 0.1-0.7 μM range following exposure to (−)-trans-3-(5,6-dihydro-4H-pyrrolo[3,2,1-ij]quinolin-1-yl)-4(1H-indol-3-yl)pyrrolidine-2,5-dione for 24 hours, as determined by colony formation assay (CFA).

[6] = system: MDA-MB-231 cells; experiment: Cancer cell invasion assay with inserts (Example 85); format: cell-based; conditions: Homo sapiens, 24 hours pretreatment, 24 hours invasion, read-out: estimated IC50, invasive phenotype
Description: MDA-MB-231 cells were pretreated with indicated concentrations of (−)-trans-3-(5,6-dihydro-4H-pyrrolo[3,2,1-ij]quinolin-1-yl)-4(1H-indol-3-yl)pyrrolidine-2,5-dione for 24 hours. 300 μl of each cell suspension (at a concentration 0.5×10^6 cells/mL in serum free medium) was placed in individual inserts and incubated for 24 hours at 37° C. The bottom wells housing the inserts contained 500 μl of 10% FBS medium. […] Each insert was then transferred to a clean well containing cell stain solution and incubated for 10 minutes at room temperature. The bottom of the insert was destained by incubating in extraction solution and OD was measured at 560 nm. (−)-trans-3-(5,6-dihydro-4H-pyrrolo[3,2,1-ij]quinolin-1-yl)-4(1H-indol-3-yl) pyrrolidine-2,5-dione inhibited the migration across interstices in confluent cultures of MDA-MB-231 cancer cells. The data represent the mean of two independent experiments. (See FIG. 9)

Question: What does the source list for `O=C1NC(=O)C(c2cn3c4c(cccc24)CCC3)C1c1c[nH]c2ccccc12` (single isomer, unassigned; (-))?
Answer: IC50 [1]: 100 to 700 nM; IC50 [2]: 620 nM; IC50 [3]: 1040 nM; IC50 [4]: 828 nM; IC50 [5]: 200 nM; IC50 [6]: ~500 nM
